Test results reported in the supplement of paper PMC8967900.

Key:
Assay in all cases: selective drug sensitivity score (sDSS, relative to normal bone marrow) (sDSS (score)); higher = more potent and effective on the cell line relative to normal bone marrow cells
Conditions in all cases: 72 h
P12-ICHIKAWA = system: P12-ICHIKAWA
SUP-B15 = system: SUP-B15
KASUMI-2 = system: KASUMI-2
PF-382 = system: PF-382
MOLT-4 = system: MOLT-4
697 = system: 697
COG-LL-332h = system: COG-LL-332h
COG-LL-317 = system: COG-LL-317
MOLT-14 = system: MOLT-14
MHH-CALL-2 = system: MHH-CALL-2
MHH-CALL-4 = system: MHH-CALL-4
COG-LL-319h = system: COG-LL-319h
ALL-SIL = system: ALL-SIL
ALL-PO = system: ALL-PO
NALM-6 = system: NALM-6
NALL-1 = system: NALL-1
COG-LL-402h = system: COG-LL-402h
LC4-1 = system: LC4-1
KASUMI-10 = system: KASUMI-10
TANOUE = system: TANOUE
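Further: ALL cell lines in 384-well plates, five doses spanning 10,000-fold, each plate scaled between vehicle and 100 µmol/L benzalkonium chloride controls, sDSS an adapted area-under-curve metric.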

Row | SMILES | selective drug sensitivity score (P12-ICHIKAWA) | selective drug sensitivity score (SUP-B15) | selective drug sensitivity score (KASUMI-2) | selective drug sensitivity score (PF-382) | selective drug sensitivity score (MOLT-4) | selective drug sensitivity score 697 | selective drug sensitivity score (COG-LL-332h) | selective drug sensitivity score (COG-LL-317) | selective drug sensitivity score (MOLT-14) | selective drug sensitivity score (MHH-CALL-2) | selective drug sensitivity score (MHH-CALL-4) | selective drug sensitivity score (COG-LL-319h) | selective drug sensitivity score (ALL-SIL) | selective drug sensitivity score (ALL-PO) | selective drug sensitivity score (NALM-6) | selective drug sensitivity score (NALL-1) | selective drug sensitivity score (COG-LL-402h) | selective drug sensitivity score (LC4-1) | selective drug sensitivity score (KASUMI-10) | selective drug sensitivity score (TANOUE)
1 | CC(=O)OC[C@H]1O[C@@H]([S-])[C@H](OC(C)=O)[C@@H](OC(C)=O)[C@@H]1OC(C)=O.CCP(CC)CC.[Au+] [Auranofin] (top concentration 2500 nM) | -0.96 | 12.6 | 0.54 | -1.36 | -0.46 | 1.94 | 1.44 | 3.44 | 0.04 | 8.14 | 7.34 | 8.24 | 2.44 | 0.34 | 5.34 | 3.14 | 7.84 | 6.34 | 5.54 | -1.06
2 | CNC(=O)c1ccccc1Sc1ccc2c(/C=C/c3ccccn3)n[nH]c2c1 [Axitinib] (top concentration 10000 nM) | 12.1 | 16.4 | 6.56 | 6.96 | 12.2 | 14.7 | 13.3 | 8.26 | 8.56 | -0.34 | -2.44 | 7.96 | 20.1 | 9.16 | 7.86 | 5.56 | 5.86 | 11.8 | 1.86 | -2.94
3 | Cc1c(N)nc([C@H](CC(N)=O)NC[C@H](N)C(N)=O)nc1C(=O)N[C@H](C(=O)N[C@H](C)[C@@H](O)[C@H](C)C(=O)N[C@H](C(=O)NCCc1nc(-c2nc(C(=O)NCCC[S+](C)C)cs2)cs1)[C@@H](C)O)[C@@H](O[C@@H]1O[C@@H](CO)[C@@H](O)[C@H](O)[C@@H]1O[C@H]1O[C@H](CO)[C@@H](O)[C@H](OC(N)=O)[C@@H]1O)c1c[nH]cn1 [Bleomycin] (top concentration 10000 nM) | -0.56 | 6.44 | 6.44 | 1.94 | 2.24 | 4.74 | 8.04 | 5.14 | 0.94 | 3.14 | 4.54 | 7.84 | -1.36 | -1.76 | 5.74 | -1.56 | 2.84 | 0.54 | 1.14 | -1.86
4 | CC(C)C[C@H](NC(=O)[C@H](Cc1ccccc1)NC(=O)c1cnccn1)B(O)O [Bortezomib] (top concentration 1000 nM) | 2.22 | 8.42 | 1.42 | 1.82 | 2.22 | 2.62 | 4.22 | 3.02 | 1.52 | 3.82 | 3.92 | 4.02 | 4.72 | 4.82 | 1.82 | 2.52 | 1.32 | 3.32 | 2.92 | -9.68
5 | CCC/C=C/C=C/C(=O)O[C@H]1/C(=C/C(=O)OC)C[C@H]2C[C@H]([C@@H](C)O)OC(=O)C[C@H](O)C[C@@H]3C[C@H](OC(C)=O)C(C)(C)[C@](O)(C[C@@H]4C/C(=C/C(=O)OC)C[C@H](/C=C/C(C)(C)[C@]1(O)O2)O4)O3 [Bryostatin_1] (top concentration 100 nM) | 1.68 | 15.6 | -7.12 | 4.18 | -7.12 | 12 | -7.12 | -6.82 | -7.12 | 8.68 | -7.12 | -7.12 | -7.12 | -7.12 | -7.12 | -7.12 | -5.72 | 30.6 | 6.78 | -6.82
6 | CO[C@H]1CC[C@H](N2C(=O)CNc3ncc(-c4ccc(C(C)(C)O)nc4)nc32)CC1 [CC-223] (top concentration 10000 nM) | 1.92 | -1.38 | 7.92 | 1.42 | -0.48 | 5.02 | 1.92 | -0.48 | 0.62 | 6.42 | 1.52 | 5.12 | 1.32 | 0.22 | 1.42 | 5.52 | 2.92 | 0.42 | -1.38 | -3.88
7 | CN(C)c1cc2c(cc1Sc1nc3c(N)nccc3n1CCNCC(C)(C)C)OCO2 [CUDC-305] (top concentration 10000 nM) | 2.82 | 3.22 | -0.28 | 3.82 | 6.02 | 2.92 | 3.82 | 7.62 | 5.12 | 1.02 | 0.92 | -2.48 | 3.02 | 7.52 | 4.72 | 0.42 | 3.92 | -0.98 | 3.52 | -6.68
8 | CO[C@H]1C(=O)[C@]2(C)[C@@H](OC)C[C@H]3OC[C@@]3(OC(C)=O)[C@H]2[C@H](OC(=O)c2ccccc2)[C@]2(O)C[C@H](OC(=O)[C@H](O)[C@@H](NC(=O)OC(C)(C)C)c3ccccc3)C(C)=C1C2(C)C [Cabazitaxel] (top concentration 1000 nM) | 3.08 | 21.9 | 17.5 | 10.9 | 18.4 | 23.7 | 22.1 | 26.2 | 22.7 | 15.9 | 3.58 | 16.9 | 19.3 | 15.1 | 15.9 | 11.4 | 17.1 | 22.4 | 12.4 | -11.5
9 | C=CC(=O)Nc1cc2c(Nc3ccc(F)c(Cl)c3)ncnc2cc1OCCCN1CCOCC1 [Canertinib] (top concentration 10000 nM) | -1.54 | 3.16 | 1.86 | -0.54 | -2.14 | 1.66 | 1.86 | 2.96 | -0.04 | 3.16 | 1.66 | 3.36 | 5.16 | 2.86 | -1.34 | -0.94 | 4.86 | 2.76 | 4.66 | -7.24
